The target in series [1] is T1, Polyunsaturated fatty acid 5-lipoxygenase (Homo sapiens, UniProt P09917).
T1 sequence (P09917 whole entry): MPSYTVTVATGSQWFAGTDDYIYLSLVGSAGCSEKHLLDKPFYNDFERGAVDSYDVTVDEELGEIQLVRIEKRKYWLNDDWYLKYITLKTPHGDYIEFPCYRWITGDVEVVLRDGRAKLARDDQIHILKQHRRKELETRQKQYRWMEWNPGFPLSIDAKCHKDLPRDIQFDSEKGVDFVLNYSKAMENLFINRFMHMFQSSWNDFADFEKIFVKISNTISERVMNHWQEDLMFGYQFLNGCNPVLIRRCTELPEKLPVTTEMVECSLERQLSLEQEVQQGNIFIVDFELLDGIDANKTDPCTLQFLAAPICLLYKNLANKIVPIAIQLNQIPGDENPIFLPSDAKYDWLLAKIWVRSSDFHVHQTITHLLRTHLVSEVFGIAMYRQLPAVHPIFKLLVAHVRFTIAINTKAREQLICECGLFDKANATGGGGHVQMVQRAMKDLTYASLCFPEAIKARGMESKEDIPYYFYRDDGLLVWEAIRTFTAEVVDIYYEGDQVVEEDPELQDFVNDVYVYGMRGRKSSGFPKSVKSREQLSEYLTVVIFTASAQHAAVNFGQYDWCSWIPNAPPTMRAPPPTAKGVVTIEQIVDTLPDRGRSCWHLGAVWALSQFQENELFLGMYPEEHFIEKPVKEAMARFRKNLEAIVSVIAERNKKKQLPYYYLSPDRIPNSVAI
The series is described as follows: Inhibition of 5-lipoxygenase in human whole blood assessed as inhibition of LTB4 production. In kind it is tissue-based.

Series [2] has as its target Voltage-gated inwardly rectifying potassium channel KCNH2 (Homo sapiens, UniProt Q12809). The series is described as follows: Displacement of labeled MK-499 from human ERG.
Series [3] has as its target T1, Polyunsaturated fatty acid 5-lipoxygenase. The series is described as follows: Inhibition of human recombinant 5-lipoxygenase assessed as arachidonic acid oxidation.
In series [4] the target is T2, Arachidonate 5-lipoxygenase-activating protein (Homo sapiens) (UniProt P20292).
T2 sequence (whole entry): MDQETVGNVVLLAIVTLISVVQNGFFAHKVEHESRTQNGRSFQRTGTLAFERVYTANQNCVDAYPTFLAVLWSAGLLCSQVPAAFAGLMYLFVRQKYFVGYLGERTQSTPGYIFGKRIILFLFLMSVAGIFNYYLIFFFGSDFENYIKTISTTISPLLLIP
The series is described as follows: (§1) Inhibition of 5-lipoxygenase activating protein.

Series [5] has as its target T3, Arachidonate 5-lipoxygenase-activating protein (Homo sapiens, UniProt P20292).
T3 sequence (P20292 whole entry): T2 sequence (whole entry)
The description is as §1.

A short description of series [6]: Cmax in rhesus monkey at 5 mg/kg, iv and 4 mg/kg, po. In kind it is ADME, organism-based, Macaca mulatta. The note with it: in vivo.
Series [7] is described as follows: Half life in rat at 5 mg/kg, iv and 20 mg/kg, po. The class given is ADME, organism-based. Particulars: in vivo.
Series [8] in a line: Cmax in rat at 5 mg/kg, iv and 20 mg/kg, po. In kind it is ADME, organism-based. The note with it: in vivo.
The nature of series [9]: Half life in dog at 5 mg/kg, iv and 4 mg/kg, po. The note with it: in vivo. In kind it is ADME, organism-based, Canis lupus familiaris.
The target of series [10] is T4, Polyunsaturated fatty acid lipoxygenase ALOX12 (Homo sapiens, UniProt P18054).
T4 sequence (P18054 whole entry): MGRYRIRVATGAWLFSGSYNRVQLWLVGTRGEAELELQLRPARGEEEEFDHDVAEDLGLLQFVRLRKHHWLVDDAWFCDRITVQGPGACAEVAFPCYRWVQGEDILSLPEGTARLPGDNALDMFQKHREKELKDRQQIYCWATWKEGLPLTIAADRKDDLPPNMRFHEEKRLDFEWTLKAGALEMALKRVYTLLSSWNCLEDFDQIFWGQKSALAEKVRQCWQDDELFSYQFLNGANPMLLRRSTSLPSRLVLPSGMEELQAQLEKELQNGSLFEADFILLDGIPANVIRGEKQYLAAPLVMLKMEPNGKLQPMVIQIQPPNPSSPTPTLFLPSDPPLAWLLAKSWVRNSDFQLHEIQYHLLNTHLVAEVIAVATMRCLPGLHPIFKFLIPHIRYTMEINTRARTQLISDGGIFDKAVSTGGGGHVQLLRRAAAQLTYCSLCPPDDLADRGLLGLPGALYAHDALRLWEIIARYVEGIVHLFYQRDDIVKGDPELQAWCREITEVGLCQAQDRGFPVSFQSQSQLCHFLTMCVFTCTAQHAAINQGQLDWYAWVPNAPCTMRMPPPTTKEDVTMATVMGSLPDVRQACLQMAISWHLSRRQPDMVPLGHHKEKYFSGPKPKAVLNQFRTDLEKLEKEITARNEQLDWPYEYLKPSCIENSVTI
The series is described as follows: Inhibition of 12-lipoxygenase.

The nature of series [11]: Oral bioavailability in dog at 4 mg/kg. The class given is ADME, organism-based, Canis lupus familiaris. The note with it: in vivo.
Series [12] can be described thus: Oral bioavailability in rhesus monkey at 4 mg/kg. In kind it is ADME, organism-based, Macaca mulatta. The note with it: in vivo.
The target of series [13] is T5, Polyunsaturated fatty acid lipoxygenase ALOX15 (Homo sapiens, UniProt P16050).
T5 sequence (P16050 whole entry): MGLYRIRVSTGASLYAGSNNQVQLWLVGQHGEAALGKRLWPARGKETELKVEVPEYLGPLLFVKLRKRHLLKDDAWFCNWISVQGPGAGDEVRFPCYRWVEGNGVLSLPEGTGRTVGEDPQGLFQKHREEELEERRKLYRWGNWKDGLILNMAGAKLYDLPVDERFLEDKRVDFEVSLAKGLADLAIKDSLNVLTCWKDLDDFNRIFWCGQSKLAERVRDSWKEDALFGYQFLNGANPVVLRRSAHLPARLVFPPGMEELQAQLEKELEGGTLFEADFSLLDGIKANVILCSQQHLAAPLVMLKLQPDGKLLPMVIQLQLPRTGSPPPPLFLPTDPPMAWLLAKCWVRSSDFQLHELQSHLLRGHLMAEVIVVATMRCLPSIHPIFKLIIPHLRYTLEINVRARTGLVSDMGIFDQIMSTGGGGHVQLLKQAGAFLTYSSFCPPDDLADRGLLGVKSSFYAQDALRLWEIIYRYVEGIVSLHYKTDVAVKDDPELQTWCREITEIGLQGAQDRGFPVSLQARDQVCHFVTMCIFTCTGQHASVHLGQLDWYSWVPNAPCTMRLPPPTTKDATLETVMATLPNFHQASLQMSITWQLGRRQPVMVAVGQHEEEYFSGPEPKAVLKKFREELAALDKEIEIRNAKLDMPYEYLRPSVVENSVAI
In words: Inhibition of 15-lipoxygenase.

A short description of series [14]: Cmax in dog at 5 mg/kg, iv and 4 mg/kg, po. Particulars: in vivo. The class given is ADME, organism-based, Canis lupus familiaris.
A short description of series [15]: Half life in rhesus monkey at 5 mg/kg, iv and 4 mg/kg, po. In kind it is ADME, organism-based, Macaca mulatta. The note with it: in vivo.
Series [16] is described as follows: Oral bioavailability in rat at 20 mg/kg. In kind it is ADME, organism-based. Particulars: in vivo.

Here are results for 15 compounds from ChEMBL document CHEMBL1287744, “Potent and selective 5-LO inhibitor bearing benzothiophene pharmacophore: discovery of MK-5286” (Bioorg Med Chem Lett, 2010).

Molecules are shown by their SMILES. Calls of active or inactive are those of the source.

What is called IC50 is the concentration that inhibits the measured activity by half. The Ki is a dissociation constant, usually derived from enzyme kinetics or from competition with a known ligand. What is called Cmax is the highest concentration seen after dosing. A word on the half-life: it is the time needed for the level to fall by half in the phase considered.

Sequence of Voltage-gated inwardly rectifying potassium channel KCNH2 (Q12809 whole entry): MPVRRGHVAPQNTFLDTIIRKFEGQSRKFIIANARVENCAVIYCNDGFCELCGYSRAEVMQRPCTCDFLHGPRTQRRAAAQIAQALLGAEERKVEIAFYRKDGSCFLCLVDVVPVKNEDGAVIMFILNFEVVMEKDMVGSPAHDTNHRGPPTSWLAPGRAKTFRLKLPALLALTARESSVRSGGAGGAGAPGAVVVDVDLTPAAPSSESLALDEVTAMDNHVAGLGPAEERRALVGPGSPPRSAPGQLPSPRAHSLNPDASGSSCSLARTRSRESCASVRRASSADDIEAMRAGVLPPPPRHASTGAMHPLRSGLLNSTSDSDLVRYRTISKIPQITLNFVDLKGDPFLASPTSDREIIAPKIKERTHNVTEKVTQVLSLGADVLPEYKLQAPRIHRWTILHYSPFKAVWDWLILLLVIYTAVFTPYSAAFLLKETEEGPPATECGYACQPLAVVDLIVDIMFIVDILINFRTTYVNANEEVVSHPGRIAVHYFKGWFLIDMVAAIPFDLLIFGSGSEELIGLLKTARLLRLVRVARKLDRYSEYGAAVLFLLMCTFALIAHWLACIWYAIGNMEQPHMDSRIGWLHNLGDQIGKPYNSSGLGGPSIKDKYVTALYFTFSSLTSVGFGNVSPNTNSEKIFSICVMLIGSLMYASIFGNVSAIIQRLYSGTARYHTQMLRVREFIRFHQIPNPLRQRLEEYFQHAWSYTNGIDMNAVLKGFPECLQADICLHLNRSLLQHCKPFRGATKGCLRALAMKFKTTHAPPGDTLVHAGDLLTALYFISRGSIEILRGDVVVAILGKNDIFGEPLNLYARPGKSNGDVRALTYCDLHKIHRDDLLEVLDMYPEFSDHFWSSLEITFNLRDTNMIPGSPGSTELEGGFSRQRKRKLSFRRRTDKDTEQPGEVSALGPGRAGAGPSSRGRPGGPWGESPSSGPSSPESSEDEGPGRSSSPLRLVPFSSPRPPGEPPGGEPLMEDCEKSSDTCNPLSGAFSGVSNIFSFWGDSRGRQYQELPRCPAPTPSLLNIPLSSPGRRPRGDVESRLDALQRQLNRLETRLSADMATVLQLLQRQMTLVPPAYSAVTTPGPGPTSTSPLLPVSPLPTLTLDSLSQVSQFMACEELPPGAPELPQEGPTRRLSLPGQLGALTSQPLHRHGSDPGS

Turning to `CCC(O)(c1cn(Cc2ccc3c(-c4ccccc4)c(C(=O)N(C)C)sc3c2)nn1)C(F)(F)F` (stereo not given), the IC50 was determined as 1840 nM in series [1] and 1890 nM in series [3]. For the same compound, in [2] (read-out: Ki), the Ki was above 20 µM.
For `CC[C@](O)(c1cn(Cc2ccc3c(-c4ccc(F)cc4)c(C(=O)O)sc3c2)nn1)C(F)(F)F`, in [4], the inhibition entry was “inactive”. Besides, the results for the IC50 in series [1] and in series [3] were above 20000 nM and above 10000 nM, respectively. The “inhibition (INH)” value in series [2] (human) is given as “Not Active”. In addition, in series [2] (read-out: Ki), the inhibitory constant (Ki) was above 20 µM.
In the case of `CCC(O)(c1cn(Cc2ccc3c(-c4ccccc4)csc3c2)nn1)C(F)(F)F` (stereo not given), the figures for the IC50 in series [1] and in [3] were 598 nM and 40 nM, respectively. In addition, in series [2], the Ki result was “Not Active”.
Consider `CCC(O)(c1cn(Cc2ccc3c(-c4ccccc4)c(C(=O)NC)sc3c2)nn1)C(F)(F)F` (stereo not given), for which the IC50 in series [1] stood at 263 nM; in series [3] it was 223 nM.
`CCC(O)(c1cn(Cc2ccc3c(-c4ccccc4)c(CO)sc3c2)nn1)C(F)(F)F` (stereo not given): the IC50 came out at 64 nM in series [1] and 19 nM in [3]. Further, in [2] (read-out: Ki), the Ki turned out to be 13 µM.
`CCC(O)(c1cn(Cc2ccc3c(-c4ccccc4)c(C(C)O)sc3c2)nn1)C(F)(F)F` (stereo not given): the IC50 in series [1] stood at 161 nM; in series [3], 88 nM. For the same compound, the Ki in series [2] (read-out: Ki) is 3.8 µM.
Regarding `CCC(O)(c1cn(Cc2ccc3c(-c4ccccc4)c(C(=O)OC)sc3c2)nn1)C(F)(F)F` (stereo not given), the IC50 in [1] came out at 260 nM; in series [3], 7.9 nM.
In the same order, the values of `CC[C@](O)(c1cn(Cc2ccc3c(-c4ccccc4)c(C(N)=O)sc3c2)nn1)C(F)(F)F` are 32 nM and 28 nM.
For `CC[C@@](O)(c1cn(Cc2ccc3c(-c4ccc(F)cc4)c(C(N)=O)sc3c2)nn1)C(F)(F)F`, the IC50 in [1] stood at 154 nM; in series [3], 1160 nM. Also, the Ki in [2] (read-out: Ki) came out at 11 µM.
Consider `CC[C@](O)(c1cn(Cc2ccc3c(-c4cccc(F)c4)c(C(N)=O)sc3c2)nn1)C(F)(F)F`, for which the IC50 came out at 31 nM in series [1] and 39 nM in series [3]. Also, the Ki in series [2] (read-out: Ki) is 14 µM.
For `CC[C@](O)(c1cn(Cc2ccc3c(-c4ccc(F)cc4)c(C(N)=O)sc3c2)nn1)C(F)(F)F`, the concentration for half-maximal inhibition (IC50) is above 20 µM in [5]; 21 nM in series [1]; above 20 µM in series [10]; above 20 µM in [13]; 55 nM in series [3]. Also, the figures for the Cmax in series [6], in [8] and in [14] were 1400 nM, 19.4 µM and 6.7 µM, respectively. Moreover, the results for the half-life in series [7], in series [9] and in series [15] were 474 min, 1740 min and 1320 min, respectively. The bioavailability in [11] worked out at 120%; in [12], 66%; in [16], 114%. Moreover, the Ki in [2] (read-out: Ki) was determined as 13 µM.
Turning to `CCC(O)(c1cn(Cc2ccc3c(-c4ccccc4)c(C(C)(C)O)sc3c2)nn1)C(F)(F)F` (stereo not given), the IC50 is 392 nM in [1] and 198 nM in series [3]. Besides, the Ki in series [2] (read-out: Ki) came out at 2.6 µM.
In the same order, the values of `CCC(O)(c1cn(Cc2ccc3c(-c4ccccc4)c(C(C)=O)sc3c2)nn1)C(F)(F)F` (stereo not given) are 84 nM, 11 nM and 4.4 µM.
With `CCC(O)(c1cn(Cc2ccc3c(-c4ccccc4)c(C(=O)O)sc3c2)nn1)C(F)(F)F` (stereo not given), the figures for the IC50 in series [1] and in [3] were above 20000 nM and above 10000 nM, respectively. Moreover, in series [2] (read-out: Ki), the Ki was above 20 µM.
As for `CCC(O)(c1cn(Cc2ccc3c(-c4ccccc4)c(C(N)=O)sc3c2)nn1)C(F)(F)F` (stereo not given), the concentration for half-maximal inhibition (IC50) in series [1] amounted to 70 nM; in [3], 55 nM.
